Reference: BindingDB's records for doi:10.1021/jm301365e (Sichuan University, 2012)

Target: Tyrosine-protein kinase SYK (Homo sapiens) (UniProt P43405)
Assay: Inhibition of human recombinant SYK by radiometric kinase assay

IC50: 720 nM
Compound: CN1CCN(c2ccc(Nc3ncc4nc(Nc5ccccc5)n(C5CCCC5)c4n3)cc2)CC1
